In patent US6613747B2, “6-O-carbamoyl ketolide antibacterials” (Ortho-McNeil Pharmaceutical, Inc., priority 2000, dated 2003):
Values after ≈ are worked out from the molar mass of the structure shown. Where two headings read alike, the source gives them in different places.

Columns and labels:
Test in all cases: MIC, microdilution broth method (NCCLS)
Format in all cases: cell-based
S. aureus ATCC29213 = conditions: B: S. aureus ATCC29213, 35° C., 16-20 hours
Description: (§1) Minimal inhibitory concentration (MIC) has been an indicator of in vitro antibacterial activity widely used in the art. The in vitro antimicrobial activity of the compounds was determined by the microdilution broth method following the test method from the National Committee for Clinical Laboratory Standards (NCCLS). This method is described in the NCCLS Document M7-A4, Vol. 17, No. 2, “Methods for Dilution Antimicrobial Susceptibility Test for Bacteria that Grow Aerobically—Fourth Edition”, which is incorporated herein by reference.
(§2) In this method two-fold serial dilutions of drug in cation adjusted Mueller-Hinton broth are added to wells in microdilution trays. The test organisms are prepared by adjusting the turbidity of actively growing broth cultures so that the final concentration of test organism after it is added to the wells is approximately 5×10^4 CFU/well.
(§3) Following inoculation of the microdilution trays, the trays are incubated at 35° C. for 16-20 hours and then read. […] The amount of growth in the wells containing the test compound is compared with the amount of growth in the growth-control wells (no test compound) used in each tray. As set forth in Table 1, compounds of the present invention were tested against a variety of Gram positive and Gram negative pathogenic bacteria resulting in a range of activities depending on the organism tested.

H. influenzae ATCC49247 = conditions: E: H. influenzae ATCC49247, 35° C., 16-20 hours
Description: as §1, §2, §3

S. pneumoniae ATCC49619 = conditions: D: S. pneumoniae ATCC49619, 35° C., 16-20 hours
Description: as §1, §2, §3

E. faecalis ATCC29212 = conditions: C: E. faecalis ATCC29212, 35° C., 16-20 hours
Description: as §1, §2, §3

E. coli OC2605 = conditions: A: E. coli OC2605, 35° C., 16-20 hours
Description: as §1, §2, §3

MIC (S. aureus ATCC29213) [µg/mL] | MIC (H. influenzae ATCC49247) [µg/mL] | MIC (S. pneumoniae ATCC49619) | MIC (E. faecalis ATCC29212) [µg/mL] | MIC (E. coli OC2605) [µg/mL] | MIC (S. aureus ATCC29213; Staphylococcus aureus, read-out: MIC) [µg/mL] | MIC (H. influenzae ATCC49247; Haemophilus influenzae, read-out: MIC) [µg/mL] | MIC (S. pneumoniae ATCC49619; Streptococcus pneumoniae, read-out: MIC) [µg/mL] | MIC (E. faecalis ATCC29212; Enterococcus faecalis, read-out: MIC) [µg/mL] | MIC (E. coli OC2605; Escherichia coli, read-out: MIC) [µg/mL] | SMILES
2 (≈ 2.31 µM) | >16 | 0.06 µg/mL (≈ 0.0692 µM) | 0.5 (≈ 0.577 µM) | >16 | – | – | – | – | – | CC[C@H]1OC(=O)[C@H](C)C(=O)[C@H](C)[C@@H](O[C@@H]2O[C@H](C)C[C@H](N(C)C)[C@H]2O)[C@](C)(OC(=O)NCCN(C)Cc2ccc(-c3ncccn3)cc2)C[C@@H](C)C(=O)[C@H](C)[C@H]2NC(=O)O[C@@]21C [Compound 117]
0.5 (≈ 0.598 µM) | 4 (≈ 4.78 µM) | 0.06 µg/mL (≈ 0.0718 µM) | 0.12 (≈ 0.144 µM) | >16 | – | – | – | – | – | CC[C@H]1OC(=O)[C@H](C)C(=O)[C@H](C)[C@@H](O[C@@H]2O[C@H](C)C[C@H](N(C)C)[C@H]2O)[C@](C)(OC(=O)NC/C=C/c2cccc(-c3ncccn3)c2)C[C@@H](C)C(=O)[C@H](C)[C@H]2NC(=O)O[C@@]21C [Compound 66]
0.25 (≈ 0.285 µM) | 2 (≈ 2.28 µM) | 0.06 µg/mL (≈ 0.0683 µM) | 0.12 (≈ 0.137 µM) | >16 | – | – | – | – | – | CC[C@H]1OC(=O)[C@H](C)C(=O)[C@H](C)[C@@H](O[C@@H]2O[C@H](C)C[C@H](N(C)C)[C@H]2OC(C)=O)[C@](C)(OC(=O)NC/C=C/c2ccc(-c3ncccn3)cc2)C[C@@H](C)C(=O)[C@H](C)[C@H]2NC(=O)O[C@@]21C [Compound 94]
0.25 (≈ 0.298 µM) | 4 (≈ 4.77 µM) | 0.06 µg/mL (≈ 0.0716 µM) | 0.25 (≈ 0.298 µM) | >16 | – | – | – | – | – | CC[C@H]1OC(=O)[C@H](C)C(=O)[C@H](C)[C@@H](O[C@@H]2O[C@H](C)C[C@H](N(C)C)[C@H]2O)[C@](C)(OC(=O)NC/C=C/c2ccc(-n3cc(C)cn3)cc2)C[C@@H](C)C(=O)[C@H](C)[C@H]2NC(=O)O[C@@]21C [Compound 67]
0.25 (≈ 0.288 µM) | 4 (≈ 4.6 µM) | 0.03 µg/mL (≈ 0.0345 µM) | 0.12 (≈ 0.138 µM) | 16 (≈ 18.4 µM) | – | – | – | – | – | CCC1OC(=O)C(C)(F)C(=O)C(C)C(OC2OC(C)CC(N(C)C)C2O)C(C)(OC(=O)NCC=Cc2ccc(-c3ncccn3)cc2)CC(C)C(=NO)C(C)C2NC(=O)OC12C (stereo not shown) [Compound 123]
0.25 (≈ 0.299 µM) | 1 (≈ 1.2 µM) | 0.03 µg/mL (≈ 0.0359 µM) | 0.12 (≈ 0.144 µM) | 4 (≈ 4.78 µM) | – | – | – | – | – | CCC1OC(=O)C(C)C(=O)C(C)C(OC2OC(C)CC(N(C)C)C2O)C(C)(OC(=O)NCC=Cc2ccc(-c3cccnn3)cc2)CC(C)C(=O)C(C)C2NC(=O)OC12C (stereo not shown) [Compound 96]
4 (≈ 4.76 µM) | 8 (≈ 9.52 µM) | 0.06 µg/mL (≈ 0.0714 µM) | 0.25 (≈ 0.298 µM) | >16 | – | – | – | – | – | CC[C@H]1OC(=O)[C@H](C)C(=O)[C@H](C)[C@@H](O[C@@H]2O[C@H](C)C[C@H](N(C)C)[C@H]2O)[C@](C)(OC(=O)NCCN(C)Cc2cnc3ccccc3c2)C[C@@H](C)C(=O)[C@H](C)[C@H]2NC(=O)O[C@@]21C [Compound 119]
4 (≈ 4.75 µM) | 8 (≈ 9.49 µM) | 0.25 µg/mL (≈ 0.297 µM) | 2 (≈ 2.37 µM) | >16 | – | – | – | – | – | CCC1OC(=O)C(C)(F)C(=O)C(C)C(OC2OC(C)CC(N(C)C)C2O)C(C)(OC(=O)NCc2ccc(-c3ncccn3)cc2)CC(C)C(=NO)C(C)C2NC(=O)OC12C (stereo not shown) [Compound 128]

Second part, the compound before the results:

SMILES | MIC (S. aureus ATCC29213) [µg/mL] | MIC (H. influenzae ATCC49247) [µg/mL] | MIC (S. pneumoniae ATCC49619) | MIC (E. faecalis ATCC29212) [µg/mL] | MIC (E. coli OC2605) [µg/mL] | MIC (S. aureus ATCC29213; Staphylococcus aureus, read-out: MIC) [µg/mL] | MIC (H. influenzae ATCC49247; Haemophilus influenzae, read-out: MIC) [µg/mL] | MIC (S. pneumoniae ATCC49619; Streptococcus pneumoniae, read-out: MIC) [µg/mL] | MIC (E. faecalis ATCC29212; Enterococcus faecalis, read-out: MIC) [µg/mL] | MIC (E. coli OC2605; Escherichia coli, read-out: MIC) [µg/mL]
CC[C@H]1OC(=O)[C@H](C)C(=O)[C@H](C)[C@@H](O[C@@H]2O[C@H](C)C[C@H](N(C)C)[C@H]2O)[C@](C)(OC(=O)NCc2ccc(-c3nccc(C)n3)cc2)C[C@@H](C)C(=O)[C@H](C)[C@H]2NC(=O)O[C@@]21C [Compound 69] | 0.5 (≈ 0.607 µM) | 8 (≈ 9.71 µM) | 0.03 µg/mL (≈ 0.0364 µM) | 0.12 (≈ 0.146 µM) | >16 | – | – | – | – | –
CC[C@H]1OC(=O)[C@H](C)C(=O)[C@H](C)[C@@H](O[C@@H]2O[C@H](C)C[C@H](N(C)C)[C@H]2O)[C@](C)(OC(=O)NC/C=C/c2ccc(-c3ccccn3)s2)C[C@@H](C)C(=O)[C@H](C)[C@H]2NC(=O)O[C@@]21C [Compound 57] | 0.25 (≈ 0.297 µM) | 2 (≈ 2.38 µM) | 0.03 µg/mL (≈ 0.0357 µM) | 0.12 (≈ 0.143 µM) | 16 (≈ 19 µM) | – | – | – | – | –
CC[C@H]1OC(=O)[C@H](C)C(=O)[C@H](C)[C@@H](O[C@@H]2O[C@H](C)C[C@H](N(C)C)[C@H]2O)[C@](C)(OC(=O)NCCNC(=O)c2cnc3ccccc3c2)C[C@@H](C)C(=O)[C@H](C)[C@H]2NC(=O)O[C@@]21C [Compound 113] | 4 (≈ 4.76 µM) | 8 (≈ 9.52 µM) | 0.06 µg/mL (≈ 0.0714 µM) | 1 (≈ 1.19 µM) | >16 | – | – | – | – | –
CC[C@H]1OC(=O)[C@H](C)C(=O)[C@H](C)[C@@H](O[C@@H]2O[C@H](C)C[C@H](N(C)C)[C@H]2O)[C@](C)(OC(=O)NCCCc2ccncc2)C[C@@H](C)C(=O)[C@H](C)[C@H]2NC(=O)O[C@@]21C [Compound 24] | 1 (≈ 1.31 µM) | 2 (≈ 2.63 µM) | 0.06 µg/mL (≈ 0.0789 µM) | 0.12 (≈ 0.158 µM) | 16 (≈ 21 µM) | – | – | – | – | –
CC[C@H]1OC(=O)[C@H](C)C(=O)[C@H](C)[C@@H](O[C@@H]2O[C@H](C)C[C@H](N(C)C)[C@H]2O)[C@](C)(OC(=O)NC/C=C/C=C/c2cccc(-n3cncn3)n2)C[C@@H](C)C(=O)[C@H](C)[C@H]2NC(=O)O[C@@]21C [Compound 50] | 0.25 (≈ 0.293 µM) | 2 (≈ 2.35 µM) | ≦0.015 μg/mL | 0.06 (≈ 0.0704 µM) | 16 (≈ 18.8 µM) | – | – | – | – | –
CC[C@H]1OC(=O)[C@H](C)C(=O)[C@H](C)[C@@H](O[C@@H]2O[C@H](C)C[C@H](N(C)C)[C@H]2O)[C@](C)(OC(=O)NCCNCc2cccnc2)C[C@@H](C)C(=O)[C@H](C)[C@H]2NC(=O)O[C@@]21C [Compound 116] | 2 (≈ 2.58 µM) | 8 (≈ 10.3 µM) | 0.12 µg/mL (≈ 0.155 µM) | 1 (≈ 1.29 µM) | >16 | – | – | – | – | –
CC[C@H]1OC(=O)[C@H](C)C(=O)[C@H](C)[C@@H](O[C@@H]2O[C@H](C)C[C@H](N(C)C)[C@H]2O)[C@](C)(OC(=O)NCCN2C(=O)c3ccccc3C2=O)C[C@@H](C)C(=O)[C@H](C)[C@H]2NC(=O)O[C@@]21C [Compound 109] | 8 (≈ 9.82 µM) | 16 (≈ 19.6 µM) | 0.25 µg/mL (≈ 0.307 µM) | 2 (≈ 2.45 µM) | >16 | – | – | – | – | –
CC[C@H]1OC(=O)[C@H](C)C(=O)[C@H](C)[C@@H](O[C@@H]2O[C@H](C)C[C@H](N(C)C)[C@H]2O)[C@](C)(OC(=O)N2CCC(c3ccccc3)CC2)C[C@@H](C)C(=O)[C@H](C)[C@H]2NC(=O)O[C@@]21C [Compound 137] | 4 (≈ 5.09 µM) | 8 (≈ 10.2 µM) | 0.25 µg/mL (≈ 0.318 µM) | 1 (≈ 1.27 µM) | >16 | – | – | – | – | –
CC[C@H]1OC(=O)[C@H](C)C(=O)[C@H](C)[C@@H](O[C@@H]2O[C@H](C)C[C@H](N(C)C)[C@H]2O)[C@](C)(OC(=O)NC/C=C/c2ccc(-c3cnccn3)cc2)C[C@@H](C)C(=O)[C@H](C)[C@H]2NC(=O)O[C@@]21C [Compound 77, Carbamic acid, [(2E)-3-(4-pyrazinylphenyl)-2-propenyl]-, (3aS,4R,7R,9R,10R,11R,13R,15R,15aR)-4-ethyltetradecahydro-3a,7,9,11,13,15-hexamethyl-2,6,8,14-tetraoxo-10-[[3,4,6-trideoxy-3-(dimethylamino)-β-D-xylo-hexopyranosyl]oxy]-2H-oxacyclotetradecino[4,3-d]oxazol-11-yl ester] | – | – | – | – | – | 0.12 (≈ 0.144 µM) | 4 (≈ 4.78 µM) | 0.03 (≈ 0.0359 µM) | 0.12 (≈ 0.144 µM) | 16 (≈ 19.1 µM)
CCC1OC(=O)C(C)(F)C(=O)C(C)C(OC2OC(C)CC(N(C)C)C2O)C(C)(OC(=O)NCC=Cc2ccc(-c3ncccn3)cc2)CC(C)C(=O)C(C)C2NC(=O)OC12C (stereo not shown) [Compound 89] | 0.5 (≈ 0.585 µM) | 8 (≈ 9.37 µM) | 0.06 µg/mL (≈ 0.0703 µM) | 0.25 (≈ 0.293 µM) | 16 (≈ 18.7 µM) | – | – | – | – | –
CC[C@H]1OC(=O)[C@H](C)C(=O)[C@H](C)[C@@H](O[C@@H]2O[C@H](C)C[C@H](N(C)C)[C@H]2O)[C@](C)(OC(=O)NC/C=C/c2ccc(-n3cccn3)c(F)c2)C[C@@H](C)C(=O)[C@H](C)[C@H]2NC(=O)O[C@@]21C [Compound 58] | 0.25 (≈ 0.297 µM) | 4 (≈ 4.75 µM) | 0.06 µg/mL (≈ 0.0713 µM) | 0.12 (≈ 0.143 µM) | >16 | – | – | – | – | –
CC[C@H]1OC(=O)[C@H](C)C(=O)[C@H](C)[C@@H](O[C@@H]2O[C@H](C)C[C@H](N(C)C)[C@H]2O)[C@](C)(OC(=O)NC/C=C/c2cnn(-c3ccccc3)c2)C[C@@H](C)C(=O)[C@H](C)[C@H]2NC(=O)O[C@@]21C [Compound 62] | 0.25 (≈ 0.303 µM) | 4 (≈ 4.85 µM) | 0.06 µg/mL (≈ 0.0728 µM) | 0.12 (≈ 0.146 µM) | >16 | – | – | – | – | –
